Laboratory results: PubChem BioAssay (NCI)
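Each compound was tested at five concentrations against cells in 96-well plates for 48 hours. At the TGI there is no net growth.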

Experiments:
Assay in all cases: NCI-60 cell line screen, 48 h
CAKI-1 renal = system: CAKI-1 renal
SK-OV-3 ovarian = system: SK-OV-3 ovarian
K-562 leukemia = system: K-562 leukemia
SK-MEL-2 melanoma = system: SK-MEL-2 melanoma
HCC-2998 colon = system: HCC-2998 colon
OVCAR-5 ovarian = system: OVCAR-5 ovarian
SN12C renal = system: SN12C renal
MDA-MB-435 = system: MDA-MB-435
SK-MEL-28 melanoma = system: SK-MEL-28 melanoma
786-0 renal = system: 786-0 renal
OVCAR-4 ovarian = system: OVCAR-4 ovarian
MOLT-4 leukemia = system: MOLT-4 leukemia
MDA-N = system: MDA-N
HS 578T breast = system: HS 578T breast
CCRF-CEM leukemia = system: CCRF-CEM leukemia
TK-10 renal = system: TK-10 renal
HCT-15 colon = system: HCT-15 colon
HT29 colon = system: HT29 colon
A549 NSCLC = system: A549 NSCLC
SF-539 CNS = system: SF-539 CNS

Compound	TGI (CAKI-1 renal)	TGI (SK-OV-3 ovarian)	TGI (K-562 leukemia)	TGI (SK-MEL-2 melanoma)	TGI (HCC-2998 colon)	TGI (OVCAR-5 ovarian)	TGI (SN12C renal)	TGI (MDA-MB-435)	TGI (SK-MEL-28 melanoma)	TGI (786-0 renal)	TGI (OVCAR-4 ovarian)	TGI (MOLT-4 leukemia)	TGI (MDA-N)	TGI (HS 578T breast)	TGI (CCRF-CEM leukemia)	TGI (TK-10 renal)	TGI (HCT-15 colon)	TGI (HT29 colon)	TGI (A549 NSCLC)	TGI (SF-539 CNS)
CCCC(=O)OCOC(=O)N(C)N=Nc1ccc(C(=O)OCC)cc1	> 100 µM	> 100 µM	> 100 µM	36.3 µM	45.9 µM	> 100 µM	76.7 µM	> 100 µM	> 100 µM	59.8 µM	> 100 µM	> 100 µM	> 100 µM	85.7 µM	> 100 µM	> 100 µM	75.4 µM	41.6 µM	> 100 µM	–
COc1cccc(C(NC2=NCCC=N2)c2cc3c(cc2O)OCO3)c1O (stereo not given)	> 100 µM	> 100 µM	40.6 µM	72.5 µM	46.9 µM	> 100 µM	41.4 µM	88.8 µM	> 100 µM	25.6 µM	–	63 µM	> 100 µM	79.7 µM	32.8 µM	> 100 µM	27.7 µM	> 100 µM	> 100 µM	46.8 µM
c1ccc(COC2C3COC(O3)C(OCc3ccccc3)C2OCc2ccccc2)cc1 (stereo not given)	> 100 µM	> 100 µM	> 100 µM	> 100 µM	52.1 µM	> 100 µM	41.7 µM	> 100 µM	–	> 100 µM	> 100 µM	56.5 µM	> 100 µM	> 100 µM	40.6 µM	> 100 µM	> 100 µM	–	–	> 100 µM
O=C(O)Cc1cccc2c(=O)c3cccc([N+](=O)[O-])c3[nH]c12	> 100 µM	> 100 µM	> 100 µM	> 100 µM	> 100 µM	> 100 µM	> 100 µM	> 100 µM	–	> 100 µM	> 100 µM	> 100 µM	> 100 µM	> 100 µM	> 100 µM	> 100 µM	> 100 µM	> 100 µM	> 100 µM	78.1 µM
O=S(=O)(O)c1ccc2cc(N=Nc3c(O)ccc4ccccc34)ccc2c1	> 100 µM	> 100 µM	> 100 µM	> 100 µM	> 100 µM	> 100 µM	> 100 µM	> 100 µM	–	> 100 µM	> 100 µM	> 100 µM	> 100 µM	> 100 µM	> 100 µM	> 100 µM	> 100 µM	> 100 µM	> 100 µM	> 100 µM
CC(=O)O[C@@H]1[C@H]2[C@@H](OC(=O)c3ccccc3)[C@@H](C)C[C@]2(O)[C@H](OC(C)=O)[C@@]2(C)[C@@H]3C[C@@](C)(OC(C)=O)C[C@@H](OC(C)=O)[C@@]3(OC(C)=O)C[C@@]12C	> 10 µM	> 10 µM	> 10 µM	> 10 µM	> 10 µM	> 10 µM	> 10 µM	> 10 µM	–	> 10 µM	> 10 µM	> 10 µM	> 10 µM	> 10 µM	> 10 µM	> 10 µM	> 10 µM	–	–	> 10 µM
